Values belong to the molecule of their own block, whether it stands above or below them.
Assays:
TEAD1 [1] = biological target: T1, TEAD1 (Homo sapiens, UniProt P28347+Q96SW2); experiment: Immunoblot of TEAD1 degradation in TEAD1-mNeonGreen fusion NCI-H1299 cells; type: cell-based; conditions: 10 nM, 6 h, TEAD1-mNeonGreen NCI-H1299 cells
T1 construct: endogenous in cells; host or cells: NCI-H1299 (TEAD1-mNeonGreen knock-in)
Experimental: (§1) Immunoblotting was carried out as previously described.^[ [29] ^] Cells were seeded in 6‐well plates (Yeasen, #84011ES50) at a density of 1 million cells per well. The following day, cells were treated with compounds at the required concentrations, with the DMSO concentration kept below 0.4‰ to prevent toxic effects on the cells. The collected cell pellets were washed three times with PBS (Meilunbio, #MA0015) and resuspended in 120 µL of RIPA lysis buffer (Meilunbio, #MA0151) containing 1% protease inhibitor (Meilunbio, #MB2678‐2). The cells were then sonicated on ice and centrifuged at 12 000 rpm for 15 min at 4 °C to remove cellular debris. Protein concentrations were determined using the BCA Protein Quantification Kit (Meilunbio, #MA0082‐1). The protein samples were normalized, boiled at 99 °C for 10 min, and then subjected to electrophoresis on a 10% SDS‐PAGE gel. The separated protein bands were transferred to nitrocellulose membranes, blocked with TBST containing 5% BSA, and incubated with the indicated primary antibodies. Finally, the blots were imaged using an Amersham Typhoon NIR imager.

CRBN = biological target: T2, CRBN (Homo sapiens, UniProt Q96SW2); experiment: Intracellular CRBN binding in NanoLuc-CRBN-overexpressing HEK293T cells; type: cell-based; conditions: read-out: Cellular CRBN Binding IC50 (nM ± SD)
T2 construct: expressed in transfected cells; host or cells: HEK293T
Experimental: NanoLuc‐CRBN‐overexpressing HEK293T were seeded in 96‐well plates at a density of 2000 per well. The following day, compounds was added to the plate starting from 10 µM for a 3‐fold gradient dilution and incubated for 2 h. […] Finally, the signal was measured using an Envision plate reader (Revvity) and the data were analyzed using the GraphPad Prism 9.5 software.

CRBN-DDB1 = CRBN-DDB1 (Homo sapiens, UniProt Q96SW2); experiment: CRBN binding assay, biochemical (HTRF); conditions: recombinant CRBN-DDB1, 1 h, read-out: Biochemical CRBN Binary Binding IC50 (nM ± SD)
Experimental: Next, 400 nL of compound solution (initial concentration 10 µM, followed by a three‐fold gradient dilution) was dispensed into the wells using the positive‐pressure‐based I‐DOT dispenser. After 1 h of incubation at room temperature, the HTRF signal was measured using an Envision plate reader (Revvity). Finally, the data were analyzed using non‐linear regression curves in GraphPad Prism 9.5 software.

TEAD1 [2] = biological target: TEAD1 (Homo sapiens, UniProt P28347); experiment: Immunoblot in wild-type / CRBN-knockout HEK293T cells and rescue experiment; type: cell-based; parameters: endogenous in cells; host or cells: HEK293T wild-type and CRBN-knockout; conditions: HEK293T cells, 1 h pretreatment
Experimental: as §1

867 cancer cell lines = experiment: PRISM assay (barcoded cell line screening, 5 days); type: cell-based;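 further: top test concentration 10 mM in eight-point dilution series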
Experimental: The principle of the PRISM assay has been described elsewhere and was conducted as previously outlined by the PRISM team at the Broad Institute.^[ [14], [31] ^] In PRISM (MTS027) experiments, KG‐FP‐003 was tested across 867 different cancer cell lines. Cells were treated with eight concentration gradients, ranging from 4.6 nM to […], in triplicate dilutions over a period of five days. Each plate was treated with 20 µM bortezomib as a positive control and DMSO as a negative control. Three replicate experiments were performed for each compound. The resulting data were analyzed using GraphPad PRISM 9.5.

A172 cells = experiment: Cell viability assay (CTG, 72 h) A172; type: cell-based; conditions: 3-day compound treatment
Experimental: (§2) Cells were seeded at a density of 1000 cells per well in 96‐well flat‐bottomed cell culture plates and cultured overnight at 37 °C with 5% CO2 to allow for cell attachment. The following day, different concentrations of compounds were added using an I‐DOT dispenser. After 72 h, 25 µL of CellTiter‐Meiluncell Luminescent Cell Viability Reagent (Meilunbio, #PWL111‐2) was added and incubated for 15 min at room temperature. Luminescence signals were then measured using an Envision plate reader (Revvity). Data were analyzed using GraphPad Prism 9.5 software.^[ [30] ^]

HOS cells = experiment: Cell viability assay (CTG, 72 h) HOS; type: cell-based; conditions: 3-day compound treatment
Experimental: as §2

ES2 cells = experiment: Cell viability assay (CTG, 72 h) ES2; type: cell-based; conditions: 3-day compound treatment
Experimental: as §2

KLE cells = experiment: Cell viability assay (CTG, 72 h) KLE; type: cell-based; conditions: 3-day compound treatment
Experimental: as §2

TEAD1 (Homo sapiens, UniProt P28347), sequence (P28347 whole entry): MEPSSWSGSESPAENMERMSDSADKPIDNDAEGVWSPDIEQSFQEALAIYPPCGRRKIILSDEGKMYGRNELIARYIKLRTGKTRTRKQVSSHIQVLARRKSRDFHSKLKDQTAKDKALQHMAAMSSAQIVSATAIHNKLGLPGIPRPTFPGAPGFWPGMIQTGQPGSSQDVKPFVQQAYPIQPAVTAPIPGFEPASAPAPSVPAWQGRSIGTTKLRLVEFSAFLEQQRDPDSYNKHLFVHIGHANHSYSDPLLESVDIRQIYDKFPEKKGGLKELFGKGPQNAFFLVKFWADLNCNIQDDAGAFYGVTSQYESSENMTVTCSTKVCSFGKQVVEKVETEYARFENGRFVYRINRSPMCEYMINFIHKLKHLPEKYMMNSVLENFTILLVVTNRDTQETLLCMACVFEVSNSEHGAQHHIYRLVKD
T2 sequence (Q96SW2 whole entry): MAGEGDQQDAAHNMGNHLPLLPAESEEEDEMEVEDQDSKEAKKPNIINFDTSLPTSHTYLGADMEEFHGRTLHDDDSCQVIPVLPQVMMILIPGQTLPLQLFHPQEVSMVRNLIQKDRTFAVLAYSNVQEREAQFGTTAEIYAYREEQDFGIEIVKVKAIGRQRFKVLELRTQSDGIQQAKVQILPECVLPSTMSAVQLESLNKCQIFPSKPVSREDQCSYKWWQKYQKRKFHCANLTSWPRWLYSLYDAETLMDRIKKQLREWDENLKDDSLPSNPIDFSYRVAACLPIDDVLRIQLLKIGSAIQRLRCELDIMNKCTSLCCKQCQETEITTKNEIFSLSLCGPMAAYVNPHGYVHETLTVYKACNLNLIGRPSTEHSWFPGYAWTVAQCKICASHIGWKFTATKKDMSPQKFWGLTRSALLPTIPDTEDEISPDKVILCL
CRBN-DDB1, sequence (Q96SW2 whole entry): as above
T1 sequence (P28347 whole entry, the tested form may be a part): as the sequence (P28347 whole entry) above
T1 sequence (Q96SW2 whole entry, the tested form may be a part): as the sequence (Q96SW2 whole entry) above
T1 sequence (Q16531 2-1140 partner limits assumed): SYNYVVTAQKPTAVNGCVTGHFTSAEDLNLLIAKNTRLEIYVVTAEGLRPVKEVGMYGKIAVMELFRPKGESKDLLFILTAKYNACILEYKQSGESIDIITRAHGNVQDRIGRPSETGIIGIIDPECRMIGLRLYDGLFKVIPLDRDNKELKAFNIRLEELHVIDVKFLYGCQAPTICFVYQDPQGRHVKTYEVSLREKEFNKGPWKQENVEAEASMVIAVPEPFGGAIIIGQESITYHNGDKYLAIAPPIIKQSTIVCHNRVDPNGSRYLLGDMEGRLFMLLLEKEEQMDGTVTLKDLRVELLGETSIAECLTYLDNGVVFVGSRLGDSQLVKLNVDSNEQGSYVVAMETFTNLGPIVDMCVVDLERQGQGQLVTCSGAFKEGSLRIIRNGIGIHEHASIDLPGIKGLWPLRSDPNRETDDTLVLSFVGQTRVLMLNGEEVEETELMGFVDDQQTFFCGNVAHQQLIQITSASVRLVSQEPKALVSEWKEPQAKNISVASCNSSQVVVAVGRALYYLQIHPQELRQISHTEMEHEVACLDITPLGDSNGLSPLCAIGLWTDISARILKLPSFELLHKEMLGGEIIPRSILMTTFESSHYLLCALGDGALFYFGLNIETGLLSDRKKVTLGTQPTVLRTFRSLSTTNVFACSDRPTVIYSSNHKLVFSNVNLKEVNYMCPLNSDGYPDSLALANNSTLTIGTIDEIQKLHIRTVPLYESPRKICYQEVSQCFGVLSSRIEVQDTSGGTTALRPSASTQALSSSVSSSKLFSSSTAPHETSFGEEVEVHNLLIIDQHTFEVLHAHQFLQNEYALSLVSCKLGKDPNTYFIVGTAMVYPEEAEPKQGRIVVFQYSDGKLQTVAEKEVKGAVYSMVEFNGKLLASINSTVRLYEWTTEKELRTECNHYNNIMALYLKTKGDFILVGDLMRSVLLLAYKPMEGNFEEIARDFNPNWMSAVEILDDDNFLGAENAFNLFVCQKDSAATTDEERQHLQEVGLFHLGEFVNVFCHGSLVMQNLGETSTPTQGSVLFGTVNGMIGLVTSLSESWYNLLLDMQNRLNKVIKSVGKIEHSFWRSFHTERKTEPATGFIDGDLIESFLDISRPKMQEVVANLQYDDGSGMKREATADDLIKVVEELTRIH

Structure (SMILES): Nc1cccc2c1CN(C1CCC(=O)NC1=O)C2=O (stereo not drawn) [Lenalidomide, lenalidomide]
- Rescue: effect of pretreatment on KG-FP-003-mediated TEAD1 degradation (TEAD1 [2]): effectively blocked

Structure (SMILES): CNC(=O)c1cc2c(c(F)c1-c1c(Cl)c(F)cc3c1C[C@@](CNC(=O)CCCCC(=O)Nc1ccc4c(c1)C(=O)N(C1CCC(=O)NC1=O)C4=O)(c1ccccc1)O3)[C@@H](O)[C@@H](C)C2 (stereo partly drawn) [KG-FP-008]
- IC50 (CRBN): 426 ± 176 nM
- IC50 (CRBN-DDB1): 126 ± 47 nM

Structure (SMILES): C=C(F)C(=O)N1C[C@@H](Nc2ncccn2)[C@H](OCc2ccc(C(F)(F)F)cc2)C1 [MYF-03-176, reference compound]
- PRISM AUC (867 cancer cell lines; Cell line: A172, 5 days): 0.59
- PRISM AUC (867 cancer cell lines; Cell line: ES2, 5 days): 1.00
- PRISM AUC (867 cancer cell lines; Cell line: HOS, 5 days): 0.90
- PRISM AUC (867 cancer cell lines; Cell line: KLE, 5 days): 1.00
- IC50 (A172 cells): > 3 µM
- IC50 (HOS cells): 0.922 ± 0.404 µM
- IC50 (ES2 cells): > 2 µM
- IC50 (KLE cells): 1.41 ± 0.479 µM

Next, values leading:

- Target degradation by immunoblot (TEAD1 [1]): significant target degradation
- IC50 (CRBN): 1380 ± 794 nM
- IC50 (CRBN-DDB1): 152 ± 12 nM
Structure (SMILES): CNC(=O)c1cc2c(c(F)c1-c1c(Cl)c(F)cc3c1C[C@@](CN[C@H]1CC[C@H](C(=O)N4CCC(CC5CCN(C(=O)COc6ccc7c(c6)C(=O)N(C6CCC(=O)NC6=O)C7=O)CC5)CC4)CC1)(c1ccccc1)O3)[C@@H](O)[C@@H](C)C2 (stereo partly drawn) [KG-FP-009]

- Rescue: effect of pretreatment on KG-FP-003-mediated TEAD1 degradation (TEAD1 [2]): effectively blocked
Structure (SMILES): CC(C)C[C@H](NC(=O)[C@H](Cc1ccccc1)NC(=O)c1cnccn1)B(O)O [bortezomib]

- Rescue: effect of pretreatment on KG-FP-003-mediated TEAD1 degradation (TEAD1 [2]): effectively blocked
Structure (SMILES): NS(=O)(=O)OC[C@@H]1C[C@@H](n2ccc3c(N[C@H]4CCc5ccccc54)ncnc32)C[C@@H]1O [MLN4924]

- IC50 (CRBN): 1700 ± 384 nM
- IC50 (CRBN-DDB1): 474 ± 14 nM
Structure (SMILES): CNC(=O)c1cc2c(c(F)c1-c1c(Cl)c(F)cc3c1C[C@@](CN[C@H]1CC[C@H](C(=O)NCCCCC(=O)Nc4ccc(C)c(N5CCC(=O)NC5=O)c4)CC1)(c1ccccc1)O3)[C@@H](O)[C@@H](C)C2 [KG-FP-010]
